Test results: patent US7632850B2, “Arylalkylcarbamate derivatives and production thereof” (Sanofi-aventis, priority 2003, dated 2009)

What was measured:
[1] = target: T1, FAAH (Fatty Acid Amide Hydrolase) (Mus musculus, UniProt O08914); assay: radioenzymatic assay of anandamide hydrolysis by FAAH (mouse brain membrane homogenates); type: biochemical; settings: concentration inhibiting by 50% the control enzyme activity of FAAH; mouse brain membranes, 10 μM anandamide, 15 minutes at 25° C.
T1 construct: Membrane homogenates are prepared at the time of use by homogenizing the tissues in a Polytron; from tissue; host or cells: mouse brain (minus the cerebellum), membrane homogenate
T1 sequence (O08914 1-579): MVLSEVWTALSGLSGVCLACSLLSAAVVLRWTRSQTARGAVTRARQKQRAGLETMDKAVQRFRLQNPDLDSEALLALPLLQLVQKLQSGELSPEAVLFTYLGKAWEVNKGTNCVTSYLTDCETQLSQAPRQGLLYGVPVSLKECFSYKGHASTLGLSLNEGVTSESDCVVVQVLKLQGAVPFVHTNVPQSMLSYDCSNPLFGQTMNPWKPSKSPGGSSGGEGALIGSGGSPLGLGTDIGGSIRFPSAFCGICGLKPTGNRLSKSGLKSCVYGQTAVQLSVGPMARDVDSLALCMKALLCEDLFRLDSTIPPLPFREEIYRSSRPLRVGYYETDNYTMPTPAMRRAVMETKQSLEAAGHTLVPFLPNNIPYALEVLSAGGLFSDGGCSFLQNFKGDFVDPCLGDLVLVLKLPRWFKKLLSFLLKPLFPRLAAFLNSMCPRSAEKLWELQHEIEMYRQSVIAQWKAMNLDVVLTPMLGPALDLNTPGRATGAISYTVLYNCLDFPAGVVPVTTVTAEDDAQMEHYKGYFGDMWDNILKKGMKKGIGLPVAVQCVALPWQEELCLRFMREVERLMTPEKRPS
Protocol: The compounds of the invention were subjected to pharmacological tests permitting determination of their inhibitory effect on the enzyme FAAH (Fatty Acid Amide Hydrolase).
Accordingly, mouse brains (minus the cerebellum) are removed and stored at −80° C. Membrane homogenates are prepared at the time of use by homogenizing the tissues in a Polytron in a 10 mM Tris HCl buffer (pH 8.0) containing 150 mM NaCl and 1 mM EDTA. The enzyme reaction is subsequently conducted in 70 μl of buffer, containing bovine serum albumin without fatty acids (1 mg/ml). In succession, the test compounds, at various concentrations, anandamide [ethanolamine 1-^3H] (specific activity: 15-20 Ci/mmol) diluted to 10 μM with cold anandamide, and the membrane preparation (400 μg of frozen tissue per assay) are added. After 15 minutes at 25° C., the enzyme reaction is terminated by adding 140 μl of chloroform/methanol. (2:1). The mixture is stirred for 10 minutes then centrifuged for 15 minutes at 3500 g. An aliquot (30 μl) of the aqueous phase, containing the ethanolamine [1-^3H], is counted by liquid scintillation.

male OF1 mice = assay: analgesia test: abdominal stretches induced by PBQ (phenylbenzoquinone) i.p.; type: in vivo
Protocol: The in vivo activity of the compounds of the invention was evaluated in an analgesia test. Accordingly, intraperitoneal (i.p.) administration of PBQ (phenylbenzoquinone, 2 mg/kg in a 0.9% sodium chloride solution containing 5% of ethanol) to male OF1 mice weighing 25 to 30 g causes abdominal stretches, on average 30 twists or contractions during the period from 5 to 15 minutes after injection. The test compounds are administered orally in suspension in Tween 80 at 0.5%, 60 minutes or 120 minutes before the administration of PBQ.

SMILES | melting point [°C] | IC50 [1] [nM] | Reduction in number of stretches (%) (male OF1 mice; (b) 3 mg/kg p.o. at 1 hour) | Reduction in number of stretches (%) (male OF1 mice; (a) 1 mg/kg p.o. at 2 hours)
CNC(=O)COC(=O)NCc1ccc(-c2ccccc2)cc1 [Compound 1, 2-(methylamino)-2-oxoethyl 1,1′-biphenyl-4-ylmethylcarbamate] | 189 to 190 |  |  | 
CNC(=O)COC(=O)NCc1ccc(-c2ccc(F)cc2)cc1Cl [Compound 9, 2-(methylamino)-2-oxoethyl (3-chloro-4′-fluoro-1,1′-biphenyl-4-yl)methylcarbamate] | 170 to 172 |  |  | 
CNC(=O)COC(=O)NCc1ccc(-c2ccccn2)cc1 [Compound 81, 2-(methylamino)-2-oxoethyl 4-pyridin-2-ylbenzylcarbamate] | 151 to 153 |  |  | 
NC(=O)COC(=O)NCc1ccc(-n2cnc(-c3ccccc3)c2)cc1 [Compound 84, 2-amino-2-oxoethyl [4-(4-phenyl-1H-imidazol-1-yl)phenyl]methylcarbamate] | 200 to 203 |  |  | 
CNC(=O)COC(=O)NCCc1ccc(C(F)(F)F)cc1 [Compound 125, 2-(methylamino)-2-oxoethyl 2-[4-(trifluoromethyl)phenyl]ethylcarbamate] | 140 to 142 |  |  | 
CNC(=O)COC(=O)NCCc1ccc(-c2ccc(F)cc2)cc1F [Compound 141, 2-(methylamino)-2-oxoethyl 2-(3,4′-difluoro-1,1′biphenyl-4-yl)ethylcarbamate] | 164 to 166 |  |  | 
NC(=O)COC(=O)NCC1(c2ccc(-c3ccc(F)cc3)cc2)CC1 [Compound 145, 2-amino-2-oxoethyl 1-(4′-fluoro-1,1′-biphenyl-4-yl)cyclopropylmethylcarbamate] | 139 to 141 |  |  | 
CNC(=O)COC(=O)NCCc1ccc(-c2ccc(Cl)cc2)cc1 [Compound 150, 2-(methylamino)-2-oxoethyl 2-(4′-chloro-1,1′-biphenyl-4-yl)ethylcarbamate] | 186 to 188 | 63 | −57% (b) | 
CNC(=O)COC(=O)NCCc1ccc(-c2cccc(C#N)c2)cc1 [Compound 171, 2-(methylamino)-2-oxoethyl 2-(3′-cyano-1,1′-biphenyl-4-yl)ethylcarbamate] | 157 to 159 | 108 |  | −51% (a)

Second part, led by results:

melting point [°C] | IC50 [1] [nM] | SMILES | Reduction in number of stretches (%) (male OF1 mice; (b) 3 mg/kg p.o. at 1 hour) | Reduction in number of stretches (%) (male OF1 mice; (a) 1 mg/kg p.o. at 2 hours)
147 to 149 | 140 | CNC(=O)COC(=O)NCCc1ccc(-c2ccc(Cl)cc2Cl)cc1 [Compound 178] | −53% (b) | 
178 to 180 | 102 | CNC(=O)COC(=O)NCCc1ccc(-c2ccc(F)c(Cl)c2)cc1 [Compound 192, 2-(methylamino)-2-oxoethyl 2-(3′-chloro-4′-fluoro-1,1′-biphenyl-4-yl)ethylcarbamate] |  | −43% (a)
111 to 113 | 142 | CNC(=O)COC(=O)NCCc1ccc(Oc2ccccc2)cc1 [Compound 194] | −55% (b) | 
133 to 135 |  | CNC(=O)COC(=O)NCCc1ccc(Oc2ccc(Cl)cc2)cc1 [Compound 196, 2-(methylamino)-2-oxoethyl 2-{4-[(4-chlorophenyl)oxy]phenyl}ethylcarbamate] |  | 
82 to 84 |  | CNC(=O)COC(=O)NCCc1cccc(Oc2ccccc2)c1 [Compound 197, 2-(methylamino)-2-oxoethyl 2-(3-phenyloxyphenyl)ethylcarbamate] |  | 
110 to 112 |  | NC(=O)COC(=O)NCCc1ccc(-n2ccc3cccnc32)cc1 [Compound 224] |  | 
